Measurements reported in ChEMBL document CHEMBL1201862, “PubChem BioAssay data set” (2004).
The source made the active and inactive calls.

Key:
[1] = target: T1, Alkaline phosphatase, tissue-nonspecific isozyme (Homo sapiens, UniProt P05186); assay: TNAP enzyme activators, dose response, selectivity assay for mouse IAP activator project, biochemical, TNAP isozyme, mouse IAP uHTS hits (AID 488880); type: functional
T1 sequence (P05186 whole entry): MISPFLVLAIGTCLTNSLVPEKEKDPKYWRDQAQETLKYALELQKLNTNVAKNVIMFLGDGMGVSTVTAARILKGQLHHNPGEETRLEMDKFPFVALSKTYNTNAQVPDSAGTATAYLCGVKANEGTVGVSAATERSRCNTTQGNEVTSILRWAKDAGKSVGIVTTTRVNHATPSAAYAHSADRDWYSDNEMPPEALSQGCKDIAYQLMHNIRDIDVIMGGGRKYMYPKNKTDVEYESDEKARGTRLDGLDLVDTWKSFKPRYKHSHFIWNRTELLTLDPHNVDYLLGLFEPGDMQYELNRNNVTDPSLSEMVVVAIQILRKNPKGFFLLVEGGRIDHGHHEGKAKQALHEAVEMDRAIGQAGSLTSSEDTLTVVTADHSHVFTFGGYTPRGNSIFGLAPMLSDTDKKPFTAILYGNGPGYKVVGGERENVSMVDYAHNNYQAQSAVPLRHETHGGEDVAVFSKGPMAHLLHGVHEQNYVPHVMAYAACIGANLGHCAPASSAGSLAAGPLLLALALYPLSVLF

[2] = target: Intestinal-type alkaline phosphatase (Mus musculus, UniProt P24822); assay: mouse intestinal alkaline phosphatase activators, dose response, biochemical, luminescence, uHTS hits (AID 488783); type: functional
Intestinal-type alkaline phosphatase (Mus musculus, UniProt P24822), sequence (P24822 whole entry): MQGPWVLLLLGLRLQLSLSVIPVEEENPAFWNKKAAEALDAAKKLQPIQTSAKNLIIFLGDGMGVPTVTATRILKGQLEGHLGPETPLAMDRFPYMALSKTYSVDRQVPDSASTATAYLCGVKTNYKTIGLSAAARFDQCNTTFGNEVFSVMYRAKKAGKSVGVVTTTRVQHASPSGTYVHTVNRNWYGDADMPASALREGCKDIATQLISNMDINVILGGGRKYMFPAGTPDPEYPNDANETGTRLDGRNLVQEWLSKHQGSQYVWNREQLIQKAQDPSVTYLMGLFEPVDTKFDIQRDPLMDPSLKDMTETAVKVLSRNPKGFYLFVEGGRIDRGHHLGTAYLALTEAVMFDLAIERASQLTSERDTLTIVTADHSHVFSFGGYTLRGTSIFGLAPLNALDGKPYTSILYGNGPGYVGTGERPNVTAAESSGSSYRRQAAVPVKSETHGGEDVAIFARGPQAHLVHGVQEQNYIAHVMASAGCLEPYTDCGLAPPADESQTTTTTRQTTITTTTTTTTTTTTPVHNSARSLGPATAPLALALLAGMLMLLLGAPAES

[3] = target: Intestinal-type alkaline phosphatase (Homo sapiens, UniProt P09923); assay: activation of human intestinal alkaline phosphatase – biochemical, dose response (AID 488873); type: functional
[4] = target: Peroxisome proliferator-activated receptor gamma (Homo sapiens, UniProt P37231); assay: PPARg partial agonists, dose response, cell-based, luminescence, assay provider (AID 504447); type: functional
Peroxisome proliferator-activated receptor gamma, sequence (P37231 whole entry, the tested form may be a part): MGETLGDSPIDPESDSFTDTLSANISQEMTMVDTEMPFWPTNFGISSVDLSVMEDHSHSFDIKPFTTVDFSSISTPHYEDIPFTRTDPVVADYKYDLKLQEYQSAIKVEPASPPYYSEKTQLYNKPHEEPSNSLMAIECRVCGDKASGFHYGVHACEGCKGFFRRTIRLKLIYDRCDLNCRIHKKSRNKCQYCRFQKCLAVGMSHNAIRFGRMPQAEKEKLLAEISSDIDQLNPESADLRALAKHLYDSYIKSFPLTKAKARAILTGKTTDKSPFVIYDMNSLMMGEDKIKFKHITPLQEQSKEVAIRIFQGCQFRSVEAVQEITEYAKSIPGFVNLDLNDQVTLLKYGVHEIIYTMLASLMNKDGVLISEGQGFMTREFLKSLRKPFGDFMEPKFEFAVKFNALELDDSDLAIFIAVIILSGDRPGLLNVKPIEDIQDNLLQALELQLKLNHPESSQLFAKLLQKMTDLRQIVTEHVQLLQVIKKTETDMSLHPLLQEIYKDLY

[5] = target: T2, Sentrin-specific protease 1 (Homo sapiens, UniProt Q9P0U3); assay: Dose response confirmation of small molecule inhibitors of the catalytic domain of the SUMO protease, SENP1 in a FRET assay.; type: functional; details: read-out: IC50_Mean
T2 sequence (Q9P0U3 whole entry): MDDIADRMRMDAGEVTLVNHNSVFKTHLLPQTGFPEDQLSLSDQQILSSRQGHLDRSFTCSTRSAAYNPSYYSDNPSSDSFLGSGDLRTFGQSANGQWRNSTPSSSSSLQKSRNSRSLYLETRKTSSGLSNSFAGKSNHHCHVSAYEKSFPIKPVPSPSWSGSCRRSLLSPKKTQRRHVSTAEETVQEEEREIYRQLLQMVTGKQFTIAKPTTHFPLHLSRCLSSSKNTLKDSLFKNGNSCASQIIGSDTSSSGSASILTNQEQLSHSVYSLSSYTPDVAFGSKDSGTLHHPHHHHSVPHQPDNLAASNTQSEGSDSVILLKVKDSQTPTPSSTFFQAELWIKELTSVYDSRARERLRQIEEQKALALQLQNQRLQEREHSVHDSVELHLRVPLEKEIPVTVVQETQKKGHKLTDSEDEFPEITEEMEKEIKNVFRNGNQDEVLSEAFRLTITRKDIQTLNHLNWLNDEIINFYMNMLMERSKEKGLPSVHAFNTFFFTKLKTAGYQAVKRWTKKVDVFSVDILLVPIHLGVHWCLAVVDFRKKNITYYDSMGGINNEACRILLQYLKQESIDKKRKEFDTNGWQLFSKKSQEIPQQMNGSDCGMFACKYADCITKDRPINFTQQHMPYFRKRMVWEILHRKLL

[6] = target: T2, Sentrin-specific protease 1; assay: potency of human SENP1 inhibitors, dose response, biochemical, kinetic FRET (AID 651697); type: functional; details: read-out: IC50_Mean
[7] = target: Peroxisome proliferator-activated receptor gamma/Nuclear receptor coactivator 2 (Homo sapiens, UniProt P37231); assay: (§1) TR-FRET dose response biochemical High Throughput Screening assay for agonists of the steroid receptor coactivator 2 (SRC-2) recruitment by the peroxisome proliferator-activated receptor gamma (PPAR gamma): non-selective agonists. [Related pubchem assays: 1297, 1032 ]; type: functional
[8] = target: Heat shock protein HSP 90-alpha (Homo sapiens, UniProt P07900); type: functional, organism-based
[9] = target: Induced myeloid leukemia cell differentiation protein Mcl-1 (Homo sapiens, UniProt Q07820); type: functional
Induced myeloid leukemia cell differentiation protein Mcl-1, sequence (Q07820 whole entry): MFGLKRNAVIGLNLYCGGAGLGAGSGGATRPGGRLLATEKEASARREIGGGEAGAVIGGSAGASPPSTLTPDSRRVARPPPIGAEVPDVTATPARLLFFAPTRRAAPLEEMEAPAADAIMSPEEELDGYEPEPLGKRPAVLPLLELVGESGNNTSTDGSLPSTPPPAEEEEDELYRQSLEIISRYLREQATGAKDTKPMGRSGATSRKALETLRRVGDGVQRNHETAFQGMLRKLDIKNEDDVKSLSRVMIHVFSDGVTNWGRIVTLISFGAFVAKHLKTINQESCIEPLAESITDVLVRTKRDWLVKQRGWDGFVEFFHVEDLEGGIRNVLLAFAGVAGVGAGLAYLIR

[10] = HepG2 cell cytotoxicity, dose response, cytotoxicity control for Shn3 inhibitor project, CellTiter-Glo, cherry-picked (AID 624134); type: functional, cell-based
[11] = target: Peroxisome proliferator-activated receptor gamma/Nuclear receptor coactivator 1 (Homo sapiens, UniProt P37231); assay: as §1, with “1 (SRC-1)” for “2 (SRC-2)”, “assays (depositor defined):AID1300, AID1808, AID504735, AID631]” for “assays: 1297, 1032 ]”; type: protein assay
[12] = target: Glucose-6-phosphate 1-dehydrogenase (Homo sapiens, UniProt P11413); assay: human G6PD enzyme inhibitors, dose response, selectivity assay for P. falciparum G6PD inhibitor project, biochemical, fluorescence (AID 504792); type: functional
Glucose-6-phosphate 1-dehydrogenase, sequence (P11413 whole entry): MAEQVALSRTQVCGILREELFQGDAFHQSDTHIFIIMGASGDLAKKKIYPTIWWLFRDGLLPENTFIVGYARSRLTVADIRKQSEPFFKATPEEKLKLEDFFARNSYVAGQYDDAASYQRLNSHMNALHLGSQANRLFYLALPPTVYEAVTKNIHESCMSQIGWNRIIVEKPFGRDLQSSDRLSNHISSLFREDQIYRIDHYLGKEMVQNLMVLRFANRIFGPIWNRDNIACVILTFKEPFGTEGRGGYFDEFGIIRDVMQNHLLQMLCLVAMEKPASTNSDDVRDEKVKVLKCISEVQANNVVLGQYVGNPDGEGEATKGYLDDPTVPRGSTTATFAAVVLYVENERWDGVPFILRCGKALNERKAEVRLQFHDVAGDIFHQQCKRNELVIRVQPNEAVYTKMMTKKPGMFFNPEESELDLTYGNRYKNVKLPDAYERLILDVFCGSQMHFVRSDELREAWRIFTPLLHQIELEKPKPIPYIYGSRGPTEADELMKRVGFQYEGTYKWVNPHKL

[13] = target: Peroxisome proliferator-activated receptor gamma/Nuclear receptor coactivator 3 (Homo sapiens, UniProt P37231); assay: as §1, with “3 (SRC-3)” for “2 (SRC-2)”, “1301 (Confirmation screen.), 1048 (Primary screen.)]” for “1297, 1032 ]”; type: functional
Nonstructural protein 1 = Nonstructural protein 1 (Influenza A virus, UniProt Q194T2); type: functional, Influenza A virus (A/California/07/2009(H1N1))
Nonstructural protein 1, sequence (Q194T2 whole entry): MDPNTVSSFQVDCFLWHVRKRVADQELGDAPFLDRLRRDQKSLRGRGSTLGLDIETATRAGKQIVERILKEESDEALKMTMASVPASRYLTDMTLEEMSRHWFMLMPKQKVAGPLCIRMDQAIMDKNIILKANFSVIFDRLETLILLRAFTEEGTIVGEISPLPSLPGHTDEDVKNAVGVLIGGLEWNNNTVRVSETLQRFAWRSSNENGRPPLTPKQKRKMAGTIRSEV

[14] = Shn3 3'UTR reporter inhibitors, dose response, cell-based, Clone20 osteoblasts, firefly luciferase, cherry-picked (AID 624132); type: functional;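 further: firefly luciferase luminescence from reporter carrying the Shn3 3'UTR in osteoblasts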
[15] = Luminescence-based dose response cell-based high throughput screening assay for cytotoxic compounds using the IEC-6 intestinal epithelial cell line. [Related pubchem assays: 1858 (Summary AID.), 1825 (Counterscreen.), 1907 (Confirmation screen.)]; type: functional
[16] = control 3'UTR Renilla luciferase suppression, dose response, counter-screen for Shn3 inhibitor project, cell-based, Clone20-Shn3RL, cherry-picked (AID 624133); type: functional
[17] = target: Eukaryotic translation initiation factor 4E (Mus musculus, UniProt P63073); assay: eIF4E–eIF4G protein interaction inhibitors, dose response, biochemical, TR-FRET (AID 855); type: functional;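 further: potency for disrupting eIF4E binding to eIF4GI seen as loss of FRET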
[18] = target: T3, G-protein coupled receptor 55 (Homo sapiens, UniProt Q9Y2T6); assay: GPR55 antagonists blocking LPI-driven arrestin recruitment, primary screen, imaging, U2OS, beta-arrestin-GFP, LPI agonist (AID 2013); type: functional;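 further: antagonist potency measured as reduced agonist-driven arrestin aggregation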
T3 sequence (Q9Y2T6 whole entry): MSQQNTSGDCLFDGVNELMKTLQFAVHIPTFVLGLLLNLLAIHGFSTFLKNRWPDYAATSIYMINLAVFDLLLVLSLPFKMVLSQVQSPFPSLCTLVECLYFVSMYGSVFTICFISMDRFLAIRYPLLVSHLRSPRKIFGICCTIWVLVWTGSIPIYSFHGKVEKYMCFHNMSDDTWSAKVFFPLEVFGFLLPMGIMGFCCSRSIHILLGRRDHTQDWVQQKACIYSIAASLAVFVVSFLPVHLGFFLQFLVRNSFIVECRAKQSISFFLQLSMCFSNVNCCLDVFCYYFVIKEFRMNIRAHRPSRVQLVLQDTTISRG

[19] = cytotoxicity in HEK-293T cells, dose response, cytotoxicity control for TCR NF-kB inhibitor project, luminescence, T-cell screen hits (AID 489026); type: functional, cell-based;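 further: cells exposed to compound about 14 hours before the viability readout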
[20] = THP-1 cell cytotoxicity, dose response, cytotoxicity control for Vif-APOBEC3G degradation inhibitor project, THP-1 cells (AID 1117359); type: functional; details: Human immunodeficiency virus 1, THP-1
[21] = target: Delta-type opioid receptor (Homo sapiens, UniProt P41143); assay: SAR Analysis of Antagonists of the DOR Receptor using an Image-Based Assay - Set 3. [Related pubchem assays (depositor defined):AID1777, AID1785]; type: functional;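 further: U2OS cells expressing DOR1 and beta-arrestin GFP stimulated with 100 nM SNC80; imaging of GFP-tagged beta-arrestin moving into spots after receptor activation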
Delta-type opioid receptor, sequence (P41143 whole entry): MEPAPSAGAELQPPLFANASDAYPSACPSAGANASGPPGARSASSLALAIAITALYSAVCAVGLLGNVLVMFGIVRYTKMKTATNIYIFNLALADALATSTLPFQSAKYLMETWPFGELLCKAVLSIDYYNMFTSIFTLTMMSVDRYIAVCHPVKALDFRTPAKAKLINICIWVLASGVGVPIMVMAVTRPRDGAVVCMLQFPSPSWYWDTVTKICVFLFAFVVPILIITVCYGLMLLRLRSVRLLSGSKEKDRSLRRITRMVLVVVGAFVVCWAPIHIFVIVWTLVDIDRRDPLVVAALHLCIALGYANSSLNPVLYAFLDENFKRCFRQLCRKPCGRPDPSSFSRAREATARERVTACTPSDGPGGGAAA

[22] = target: T4, Kappa-type opioid receptor (Homo sapiens, UniProt P41145); assay: SAR analysis of small molecule antagonists of the kappa opioid receptor via a luminescent beta-arrestin assay - Set 3. [Related pubchem assays (depositor defined):AID1777, AID1778, AID1785, AID1786, AID1966, AID2133, AID2136, AID2285, AID2495]; type: functional
T4 sequence (P41145 whole entry): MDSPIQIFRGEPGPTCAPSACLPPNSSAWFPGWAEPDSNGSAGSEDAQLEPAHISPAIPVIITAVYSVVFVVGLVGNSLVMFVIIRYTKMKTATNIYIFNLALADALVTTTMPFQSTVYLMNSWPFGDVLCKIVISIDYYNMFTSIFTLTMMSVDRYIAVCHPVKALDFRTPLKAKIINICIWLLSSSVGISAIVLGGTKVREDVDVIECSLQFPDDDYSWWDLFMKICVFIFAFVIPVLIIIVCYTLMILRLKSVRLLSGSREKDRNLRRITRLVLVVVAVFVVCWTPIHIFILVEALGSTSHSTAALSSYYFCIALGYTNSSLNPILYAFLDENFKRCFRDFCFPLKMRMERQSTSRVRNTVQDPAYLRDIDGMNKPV

Mu-type opioid receptor = Mu-type opioid receptor (Homo sapiens, UniProt P35372); assay: SAR Analysis of Antagonists of the MOR Receptor using an Image-Based Assay - Set 3. [Related pubchem assays (depositor defined):AID1777, AID1785, AID1786, AID1966, AID2133, AID2136, AID2284, AID2285, AID2420]; type: functional
Mu-type opioid receptor, sequence (P35372 whole entry): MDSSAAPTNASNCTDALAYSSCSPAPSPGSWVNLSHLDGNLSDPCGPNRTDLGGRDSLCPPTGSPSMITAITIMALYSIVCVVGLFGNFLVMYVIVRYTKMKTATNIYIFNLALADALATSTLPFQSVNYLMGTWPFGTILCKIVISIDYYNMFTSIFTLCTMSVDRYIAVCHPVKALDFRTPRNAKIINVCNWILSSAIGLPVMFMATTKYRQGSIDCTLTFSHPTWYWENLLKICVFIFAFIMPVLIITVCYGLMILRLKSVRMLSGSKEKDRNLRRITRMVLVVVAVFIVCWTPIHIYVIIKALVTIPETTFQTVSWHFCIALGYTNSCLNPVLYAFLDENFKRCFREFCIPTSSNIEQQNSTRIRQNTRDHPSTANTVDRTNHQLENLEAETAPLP

[23] = target: T4, Kappa-type opioid receptor; assay: SAR analysis of Antagonists of the Kappa Opioid Receptor (KOR) using an Image-Based Assay - Set 4. [Related pubchem assays (depositor defined):AID1777, AID1785]; type: functional
T-cell = assay: inhibitors of CD8+ T cell–vesicle binding, dose response, mouse 2C CD8+ T cells, flow cytometry (AID 485284); type: functional
[24] = target: T5, G-protein coupled receptor 35 (Homo sapiens, UniProt Q9HC97); assay: SAR analysis of Agonists of the GPR35 Receptor using an Image-Based Assay - Set 4. [Related pubchem assays (depositor defined):AID2013, AID2026]; type: functional
T5 sequence (Q9HC97 whole entry): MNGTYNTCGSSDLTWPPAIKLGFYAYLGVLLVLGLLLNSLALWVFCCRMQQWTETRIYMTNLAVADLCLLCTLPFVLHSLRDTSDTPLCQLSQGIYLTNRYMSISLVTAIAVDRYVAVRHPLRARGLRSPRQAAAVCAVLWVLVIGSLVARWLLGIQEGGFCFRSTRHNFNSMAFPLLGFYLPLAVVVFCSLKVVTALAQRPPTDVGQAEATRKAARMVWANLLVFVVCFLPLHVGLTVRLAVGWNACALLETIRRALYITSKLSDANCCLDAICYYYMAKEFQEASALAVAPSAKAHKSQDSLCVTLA

Cannabinoid receptor 2 [25] = target: T6, Cannabinoid receptor 2 (Homo sapiens, UniProt P34972); assay: SAR analysis of antagonists of the Cannabinoid Receptor 2 using an Image-Based Assay - Set 3. [Related pubchem assays (depositor defined):AID2013, AID2026]; type: functional
T6 sequence (P34972 whole entry): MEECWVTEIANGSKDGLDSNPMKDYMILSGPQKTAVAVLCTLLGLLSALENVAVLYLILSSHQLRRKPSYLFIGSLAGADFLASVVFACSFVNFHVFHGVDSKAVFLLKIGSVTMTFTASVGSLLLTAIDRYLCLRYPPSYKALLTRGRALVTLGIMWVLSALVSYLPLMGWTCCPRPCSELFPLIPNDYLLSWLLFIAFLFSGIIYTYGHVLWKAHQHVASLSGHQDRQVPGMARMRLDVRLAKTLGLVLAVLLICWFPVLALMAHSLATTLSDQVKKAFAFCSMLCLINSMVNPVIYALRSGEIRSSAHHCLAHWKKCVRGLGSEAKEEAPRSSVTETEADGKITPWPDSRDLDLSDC

[26] = target: T5, G-protein coupled receptor 35; assay: SAR analysis of Antagonists of the GPR35 Receptor using an Image-Based Assay - Set 6. [Related pubchem assays (depositor defined):AID2013, AID2026]; type: functional
Cannabinoid receptor 1 [27] = target: T7, Cannabinoid receptor 1 (Homo sapiens, UniProt P21554); assay: SAR analysis of antagonists of the Cannabinoid Receptor 1 using an Image-Based Assay - Set 4. [Related pubchem assays (depositor defined):AID2013, AID2026]; type: functional
T7 sequence (P21554 whole entry): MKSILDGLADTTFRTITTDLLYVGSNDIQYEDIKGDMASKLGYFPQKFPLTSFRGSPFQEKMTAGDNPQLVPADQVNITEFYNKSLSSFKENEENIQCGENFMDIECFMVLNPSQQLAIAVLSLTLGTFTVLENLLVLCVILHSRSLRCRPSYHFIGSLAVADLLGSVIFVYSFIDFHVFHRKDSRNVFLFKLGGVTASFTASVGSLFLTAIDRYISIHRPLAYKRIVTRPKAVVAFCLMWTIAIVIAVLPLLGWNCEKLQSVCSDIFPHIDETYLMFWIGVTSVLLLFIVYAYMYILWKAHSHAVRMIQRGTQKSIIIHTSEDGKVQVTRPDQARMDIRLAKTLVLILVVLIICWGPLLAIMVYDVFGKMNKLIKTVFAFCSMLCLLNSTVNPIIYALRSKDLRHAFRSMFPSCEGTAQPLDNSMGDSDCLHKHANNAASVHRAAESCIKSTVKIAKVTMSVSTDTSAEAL

[28] = target: T3, G-protein coupled receptor 55; assay: SAR Analysis of Selective Antagonists of GPR55 using an Image-Based Assay - Set 4. [Related pubchem assays (depositor defined):AID2013, AID2026]; type: functional
Cannabinoid receptor 2 [29] = target: T6, Cannabinoid receptor 2; assay: SAR analysis of agonists of the Cannabinoid Receptor 2 using an Image-Based Assay - Set 3. [Related pubchem assays (depositor defined):AID2013, AID2026]; type: functional
Cannabinoid receptor 1 [30] = target: T7, Cannabinoid receptor 1; assay: SAR analysis of agonists of the Cannabinoid Receptor 1 using an Image-Based Assay - Set 4. [Related pubchem assays (depositor defined):AID2013, AID2026]; type: functional
Exodeoxyribonuclease V = Exodeoxyribonuclease V (Escherichia coli (strain K12), UniProt P04993+P07648+P08394); assay: E. coli RecBCD inhibitors, dose response, counter-screen for AddAB inhibitor project, absorbance, V66 E. coli, mutant T4 phage (AID 492957); type: functional, cell-based, Escherichia coli str. K-12 substr. MG1655
[31] = Counterscreen for AddAB inhibitors: absorbance-based bacterial cell-based high throughput dose response assay for inhibitors of bacterial viability. [Related pubchem assays (depositor defined):AID435030, AID449728, AID449731, AID488942, AID488955, AID488956]; type: functional
INS1 = assay: beta cell apoptosis inhibitors, cytokine rescue, dose response, luminescence, retest (AID 449756); type: functional, cell-based; details: Rattus norvegicus, INS1;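 further: cell death triggered by IL-1 beta plus TNF-alpha plus IFN-gamma mixture; protective hits raise ATP signal compared with cytokine alone wells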

Cc1ccc(NC(=O)CN(C)S(=O)(=O)c2ccc3[nH]c(=O)oc3c2)c(C)c1
EC50 [1]: 73.1 µM (active)
EC50 [2]: 57.9 µM (active)
EC50 [3]: 61.3 µM (active)

COc1ccccc1-n1cc(C(=O)c2cc(Cl)ccc2O)cc(C#N)c1=O
EC50 [4]: 2.4 µM (active)
IC50 [5]: 25.5 µM (inactive)
IC50 [6]: 40.9 µM (inactive)

CN(C)c1ccc(/C=C/c2ccc3c4ccccc4ccc3[n+]2-c2ccccc2)cc1
EC50 [7]: 17 µM (not active)
AC50 [8]: 3.19 µM (active)
IC50 [9]: 4.64 µM (not active)
AC50 [10]: 2.21 µM (active)
EC50 [11]: 19.2 µM (inactive)
IC50 [12]: > 80 µM (inactive)
EC50 [13]: 85.7 µM (not active)
IC50 (Nonstructural protein 1): 2.36 µM (active)
AC50 [14]: < 0.26 µM (active)
IC50 [15]: 2.41 µM (active)
AC50 [16]: 4.32 µM (active)
IC50 [17]: 50 µM (inactive)
IC50 [18]: 0.699 µM (active)

CC1CC(C)CN(S(=O)(=O)c2ccc(NC(=O)c3ccc(O)nc3)cc2)C1 (configuration not stated)
IC50 [19]: > 80 µM (inactive)
CC50 [20]: 19.7 µM (active)

O=C(NCCN(Cc1ccccc1)Cc1ccccc1)c1ccc(CNS(=O)(=O)c2ccccc2)cc1
IC50 [21]: > 32 µM (inactive)
IC50 [22]: > 20 µM (inactive)
IC50 (Mu-type opioid receptor): > 32 µM (inactive)
IC50 [23]: > 32 µM (inactive)

O=C(OCCOc1cccc(Cl)c1)c1ccc(F)c(S(=O)(=O)N2CCOCC2)c1
EC50 (T-cell): 12.4 µM (active)

COc1ccc(-c2c(-c3ccc(OCCN4CCOCC4)cc3O)n[nH]c2C)cc1
EC50 [24]: > 32 µM (inactive)
IC50 (Cannabinoid receptor 2 [25]): 26.8 µM (inactive)
IC50 [26]: > 32 µM (inactive)
IC50 (Cannabinoid receptor 1 [27]): 3.78 µM (active)
IC50 [28]: > 32 µM (inactive)
EC50 (Cannabinoid receptor 2 [29]): > 32 µM (inactive)
EC50 (Cannabinoid receptor 1 [30]): > 32 µM (inactive)

Nc1c(Cl)ncnc1N/N=C/c1ccc2ccccc2n1
IC50 (Exodeoxyribonuclease V): > 119 µM (inactive)
IC50 [31]: > 119 µM (inactive)
IC50 (Nonstructural protein 1): 8.42 µM (active)
AC50 (INS1): 0.825 µM (active)
